Assay results published in ChEMBL document CHEMBL2417402, “Development and therapeutic implications of selective histone deacetylase 6 inhibitors” (J Med Chem, 2013).

Key:
[1] = target: T1, Protein deacetylase HDAC6 (Homo sapiens, UniProt Q9UBN7); experiment: Inhibition of human recombinant HDAC6 using Ac-Leu-Gly-(AMC)Lys-Ac as substrate
T1 sequence (Q9UBN7 whole entry): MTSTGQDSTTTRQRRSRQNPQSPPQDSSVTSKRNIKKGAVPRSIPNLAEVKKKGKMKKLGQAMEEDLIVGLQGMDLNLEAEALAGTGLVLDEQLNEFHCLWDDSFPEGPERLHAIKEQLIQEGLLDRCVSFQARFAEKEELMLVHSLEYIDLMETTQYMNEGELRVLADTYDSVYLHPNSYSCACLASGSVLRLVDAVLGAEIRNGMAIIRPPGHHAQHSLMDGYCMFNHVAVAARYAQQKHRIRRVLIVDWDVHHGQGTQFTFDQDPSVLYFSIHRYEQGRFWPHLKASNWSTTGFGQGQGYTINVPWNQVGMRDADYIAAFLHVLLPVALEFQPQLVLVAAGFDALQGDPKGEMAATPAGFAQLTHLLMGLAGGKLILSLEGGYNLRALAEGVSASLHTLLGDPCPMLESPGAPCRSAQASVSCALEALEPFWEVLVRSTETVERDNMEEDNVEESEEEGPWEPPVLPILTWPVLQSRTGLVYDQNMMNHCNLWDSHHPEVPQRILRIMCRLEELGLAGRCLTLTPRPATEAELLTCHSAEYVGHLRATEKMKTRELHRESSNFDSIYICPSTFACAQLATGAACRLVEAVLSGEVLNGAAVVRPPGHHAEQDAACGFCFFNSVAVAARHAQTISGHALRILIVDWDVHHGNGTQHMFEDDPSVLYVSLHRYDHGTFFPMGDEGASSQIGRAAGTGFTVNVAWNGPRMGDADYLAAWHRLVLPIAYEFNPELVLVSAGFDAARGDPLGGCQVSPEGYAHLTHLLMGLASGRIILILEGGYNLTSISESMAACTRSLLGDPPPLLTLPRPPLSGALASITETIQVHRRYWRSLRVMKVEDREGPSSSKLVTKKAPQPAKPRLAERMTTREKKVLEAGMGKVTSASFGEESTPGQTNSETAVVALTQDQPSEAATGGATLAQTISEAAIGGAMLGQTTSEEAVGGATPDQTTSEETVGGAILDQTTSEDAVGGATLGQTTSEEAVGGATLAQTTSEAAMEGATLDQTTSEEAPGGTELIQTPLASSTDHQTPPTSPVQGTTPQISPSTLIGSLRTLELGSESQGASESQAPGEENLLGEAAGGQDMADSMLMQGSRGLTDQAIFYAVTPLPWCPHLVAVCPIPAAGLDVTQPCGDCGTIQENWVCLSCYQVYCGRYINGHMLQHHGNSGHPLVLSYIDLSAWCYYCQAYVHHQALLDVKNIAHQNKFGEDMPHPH

Histone deacetylase 1 [2] = target: T2, Histone deacetylase 1 (Homo sapiens, UniProt Q13547); experiment: Inhibition of human recombinant HDAC1 using Ac-Leu-Gly-(AMC)Lys-Ac as substrate
Histone deacetylase 11 = target: T3, Histone deacetylase 11 (Homo sapiens, UniProt Q96DB2); experiment: Inhibition of HDAC11 (unknown origin)
T3 sequence (Q96DB2 whole entry): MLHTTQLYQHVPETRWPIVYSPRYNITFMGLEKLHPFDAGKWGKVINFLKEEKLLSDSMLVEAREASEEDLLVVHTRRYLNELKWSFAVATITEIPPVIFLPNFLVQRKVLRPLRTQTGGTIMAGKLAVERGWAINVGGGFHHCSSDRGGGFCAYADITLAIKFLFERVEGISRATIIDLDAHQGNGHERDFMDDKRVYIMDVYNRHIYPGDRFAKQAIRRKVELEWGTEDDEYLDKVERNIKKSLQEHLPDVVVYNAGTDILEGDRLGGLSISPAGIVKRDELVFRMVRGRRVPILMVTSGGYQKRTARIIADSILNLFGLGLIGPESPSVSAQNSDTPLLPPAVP

Histone deacetylase 7 = target: T4, Histone deacetylase 7 (Homo sapiens, UniProt Q8WUI4); experiment: Inhibition of HDAC7 (unknown origin)
T4 sequence (Q8WUI4 whole entry): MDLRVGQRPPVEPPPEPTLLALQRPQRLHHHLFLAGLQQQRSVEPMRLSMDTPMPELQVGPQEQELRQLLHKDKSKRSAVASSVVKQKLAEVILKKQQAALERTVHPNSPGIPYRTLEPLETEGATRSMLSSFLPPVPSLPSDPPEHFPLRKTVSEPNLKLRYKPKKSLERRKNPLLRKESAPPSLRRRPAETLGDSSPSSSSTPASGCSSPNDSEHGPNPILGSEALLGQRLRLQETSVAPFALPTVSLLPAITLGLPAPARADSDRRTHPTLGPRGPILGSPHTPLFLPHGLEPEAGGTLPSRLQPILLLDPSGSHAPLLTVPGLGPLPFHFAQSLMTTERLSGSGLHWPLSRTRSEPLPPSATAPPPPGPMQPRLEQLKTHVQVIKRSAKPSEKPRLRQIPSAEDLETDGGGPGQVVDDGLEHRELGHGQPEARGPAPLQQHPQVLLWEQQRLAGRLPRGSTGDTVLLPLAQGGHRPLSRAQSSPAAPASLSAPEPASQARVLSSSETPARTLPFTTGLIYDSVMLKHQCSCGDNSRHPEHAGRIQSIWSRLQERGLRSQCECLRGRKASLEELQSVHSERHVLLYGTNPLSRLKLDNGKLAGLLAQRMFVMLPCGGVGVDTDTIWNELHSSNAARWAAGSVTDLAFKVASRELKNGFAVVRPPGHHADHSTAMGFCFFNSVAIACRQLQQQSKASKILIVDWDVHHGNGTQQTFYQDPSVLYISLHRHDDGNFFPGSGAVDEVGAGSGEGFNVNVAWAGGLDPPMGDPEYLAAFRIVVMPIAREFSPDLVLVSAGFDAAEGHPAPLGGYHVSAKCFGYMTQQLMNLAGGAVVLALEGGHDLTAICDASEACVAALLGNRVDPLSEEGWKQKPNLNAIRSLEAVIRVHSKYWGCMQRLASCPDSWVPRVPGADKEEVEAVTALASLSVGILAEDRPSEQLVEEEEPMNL

Histone deacetylase 5 = Histone deacetylase 5 (Homo sapiens, UniProt Q9UQL6); experiment: Inhibition of HDAC5 (unknown origin)
[3] = target: T1, Protein deacetylase HDAC6; experiment: Inhibition of HDAC6 (unknown origin)
Histone deacetylase 3 [4] = target: T5, Histone deacetylase 3 (Homo sapiens, UniProt O15379); experiment: Inhibition of HDAC3 (unknown origin)
Histone deacetylase 2 [5] = target: T6, Histone deacetylase 2 (Homo sapiens, UniProt Q92769); experiment: Inhibition of HDAC2 (unknown origin)
Histone deacetylase 8 [6] = target: T7, Histone deacetylase 8 (Homo sapiens, UniProt Q9BY41); experiment: Inhibition of HDAC8 (unknown origin)
T7 sequence (Q9BY41 whole entry): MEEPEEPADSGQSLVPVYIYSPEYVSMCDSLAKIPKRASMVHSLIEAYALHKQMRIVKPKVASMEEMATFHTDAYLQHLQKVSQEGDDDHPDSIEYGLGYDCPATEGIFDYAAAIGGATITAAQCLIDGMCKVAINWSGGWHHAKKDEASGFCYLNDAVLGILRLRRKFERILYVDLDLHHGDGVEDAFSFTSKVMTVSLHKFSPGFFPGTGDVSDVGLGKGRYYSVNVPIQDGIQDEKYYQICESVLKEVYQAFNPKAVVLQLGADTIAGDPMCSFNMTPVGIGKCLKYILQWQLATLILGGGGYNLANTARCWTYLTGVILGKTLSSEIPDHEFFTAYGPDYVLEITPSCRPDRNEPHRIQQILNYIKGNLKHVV

Histone deacetylase 1 [7] = target: T2, Histone deacetylase 1; experiment: Inhibition of HDAC1 (unknown origin)
[8] = target: T8, Polyamine deacetylase HDAC10 (Homo sapiens, UniProt Q969S8); experiment: Inhibition of HDAC10 (unknown origin)
T8 sequence (Q969S8 whole entry): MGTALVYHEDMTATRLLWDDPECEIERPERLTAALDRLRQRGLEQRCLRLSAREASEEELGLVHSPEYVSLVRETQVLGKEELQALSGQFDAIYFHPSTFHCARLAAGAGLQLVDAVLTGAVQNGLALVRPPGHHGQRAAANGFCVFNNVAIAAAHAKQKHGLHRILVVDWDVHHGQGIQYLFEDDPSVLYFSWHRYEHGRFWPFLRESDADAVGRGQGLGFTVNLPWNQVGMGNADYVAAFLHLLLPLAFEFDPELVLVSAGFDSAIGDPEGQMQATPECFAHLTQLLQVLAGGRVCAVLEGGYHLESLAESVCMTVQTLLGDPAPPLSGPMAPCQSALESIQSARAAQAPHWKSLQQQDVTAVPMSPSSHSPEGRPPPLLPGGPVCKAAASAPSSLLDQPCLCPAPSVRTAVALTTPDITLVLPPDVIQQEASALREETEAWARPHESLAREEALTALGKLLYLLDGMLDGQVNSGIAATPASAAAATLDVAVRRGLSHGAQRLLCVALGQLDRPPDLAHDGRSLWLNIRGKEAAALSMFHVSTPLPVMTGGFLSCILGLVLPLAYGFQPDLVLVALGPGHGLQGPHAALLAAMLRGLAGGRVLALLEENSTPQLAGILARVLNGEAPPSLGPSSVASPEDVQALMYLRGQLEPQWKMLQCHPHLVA

Histone deacetylase 6 = target: T9, Histone deacetylase 6 (Rattus norvegicus, UniProt Q99P97); experiment: Inhibition of FLAG-tagged HDAC6 in rat liver extract using alpha-Ac tubulin as substrate
T9 sequence (Q99P97 whole entry): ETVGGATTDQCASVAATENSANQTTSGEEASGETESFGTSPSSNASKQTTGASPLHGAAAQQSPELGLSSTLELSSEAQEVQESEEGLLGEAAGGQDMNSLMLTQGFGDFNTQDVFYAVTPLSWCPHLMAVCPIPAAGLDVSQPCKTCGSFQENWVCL

Histone deacetylase 1 [9] = target: Histone deacetylase 1 (Rattus norvegicus, UniProt Q4QQW4); experiment: Inhibition of FLAG-tagged HDAC1 in rat liver extract using fluorescent small molecule as substrate
[10] = target: T8, Polyamine deacetylase HDAC10; experiment: Inhibition of C-terminal deleted 38 amino acids (632 to 669) HDAC10 (unknown origin) expressed in sf9 cells using carboxyfluorescein (FAM)-labeled acetylated peptide as substrate after 17 hrs by fluorescence-based electrophoretic assay
Histone deacetylase 8 [11] = target: T7, Histone deacetylase 8; experiment: Inhibition of His-6-tagged full length HDAC8 (unknown origin) expressed in sf9 cells using carboxyfluorescein (FAM)-labeled acetylated peptide as substrate after 17 hrs by fluorescence-based electrophoretic assay
[12] = target: T1, Protein deacetylase HDAC6; experiment: Inhibition of His-6-tagged full length HDAC6 (unknown origin) expressed in sf9 cells using carboxyfluorescein (FAM)-labeled acetylated peptide as substrate after 17 hrs by fluorescence-based electrophoretic assay
Histone deacetylase 2 [13] = target: T6, Histone deacetylase 2; experiment: Inhibition of His-6-tagged full length HDAC2 (unknown origin) expressed in sf9 cells using carboxyfluorescein (FAM)-labeled acetylated peptide as substrate after 17 hrs by fluorescence-based electrophoretic assay
Histone deacetylase 1 [14] = target: T2, Histone deacetylase 1; experiment: Inhibition of His-6-tagged full length HDAC1 (unknown origin) expressed in sf9 cells using carboxyfluorescein (FAM)-labeled acetylated peptide as substrate after 17 hrs by fluorescence-based electrophoretic assay
Histone deacetylase 3 [15] = target: T5, Histone deacetylase 3; experiment: Inhibition of His-6-tagged full length HDAC3 (unknown origin) expressed in sf9 cells and co-expressed in SMRT gene (395 to 489) using carboxyfluorescein (FAM)-labeled acetylated peptide as substrate after 17 hrs by fluorescence-based electrophoretic assay

T6 sequence (Q92769 whole entry): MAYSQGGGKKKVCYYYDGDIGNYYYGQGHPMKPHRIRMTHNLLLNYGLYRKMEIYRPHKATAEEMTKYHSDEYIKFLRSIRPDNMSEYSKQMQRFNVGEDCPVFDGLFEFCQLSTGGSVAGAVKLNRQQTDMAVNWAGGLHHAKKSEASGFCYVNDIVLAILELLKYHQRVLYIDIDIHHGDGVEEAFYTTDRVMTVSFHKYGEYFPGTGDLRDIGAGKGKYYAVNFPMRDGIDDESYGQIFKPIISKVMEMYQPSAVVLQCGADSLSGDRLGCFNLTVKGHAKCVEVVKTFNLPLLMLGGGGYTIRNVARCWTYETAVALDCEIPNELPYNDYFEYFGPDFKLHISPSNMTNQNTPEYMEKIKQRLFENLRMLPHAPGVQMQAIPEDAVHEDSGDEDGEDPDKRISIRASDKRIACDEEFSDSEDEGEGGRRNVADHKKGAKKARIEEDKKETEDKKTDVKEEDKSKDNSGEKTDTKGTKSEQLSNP
T2 sequence (Q13547 whole entry): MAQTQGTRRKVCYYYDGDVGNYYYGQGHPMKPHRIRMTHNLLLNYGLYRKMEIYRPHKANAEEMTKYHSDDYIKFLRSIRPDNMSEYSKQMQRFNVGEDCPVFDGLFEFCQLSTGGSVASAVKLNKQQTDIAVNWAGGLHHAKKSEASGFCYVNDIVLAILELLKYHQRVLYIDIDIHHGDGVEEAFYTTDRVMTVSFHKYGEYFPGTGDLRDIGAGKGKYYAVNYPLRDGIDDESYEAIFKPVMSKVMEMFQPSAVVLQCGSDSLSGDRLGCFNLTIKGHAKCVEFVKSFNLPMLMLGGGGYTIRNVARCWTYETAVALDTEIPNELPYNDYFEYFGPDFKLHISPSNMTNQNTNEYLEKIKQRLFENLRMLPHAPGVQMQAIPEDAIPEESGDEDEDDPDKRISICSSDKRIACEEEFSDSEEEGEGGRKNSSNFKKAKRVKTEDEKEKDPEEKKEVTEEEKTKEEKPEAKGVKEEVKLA
T5 sequence (O15379 whole entry): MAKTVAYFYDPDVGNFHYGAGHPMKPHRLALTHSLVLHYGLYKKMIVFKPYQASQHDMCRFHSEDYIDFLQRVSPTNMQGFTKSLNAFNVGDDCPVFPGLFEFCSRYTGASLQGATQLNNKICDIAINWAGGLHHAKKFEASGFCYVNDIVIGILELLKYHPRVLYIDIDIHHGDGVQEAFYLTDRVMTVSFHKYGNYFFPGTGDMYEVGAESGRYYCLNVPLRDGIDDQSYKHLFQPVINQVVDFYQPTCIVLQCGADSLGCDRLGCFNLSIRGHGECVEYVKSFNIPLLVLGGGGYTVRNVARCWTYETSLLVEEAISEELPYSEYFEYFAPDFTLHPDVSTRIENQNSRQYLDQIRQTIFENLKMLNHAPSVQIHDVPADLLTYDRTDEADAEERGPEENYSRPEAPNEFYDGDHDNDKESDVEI
Chain of Histone deacetylase 5 (Q9UQL6 whole entry): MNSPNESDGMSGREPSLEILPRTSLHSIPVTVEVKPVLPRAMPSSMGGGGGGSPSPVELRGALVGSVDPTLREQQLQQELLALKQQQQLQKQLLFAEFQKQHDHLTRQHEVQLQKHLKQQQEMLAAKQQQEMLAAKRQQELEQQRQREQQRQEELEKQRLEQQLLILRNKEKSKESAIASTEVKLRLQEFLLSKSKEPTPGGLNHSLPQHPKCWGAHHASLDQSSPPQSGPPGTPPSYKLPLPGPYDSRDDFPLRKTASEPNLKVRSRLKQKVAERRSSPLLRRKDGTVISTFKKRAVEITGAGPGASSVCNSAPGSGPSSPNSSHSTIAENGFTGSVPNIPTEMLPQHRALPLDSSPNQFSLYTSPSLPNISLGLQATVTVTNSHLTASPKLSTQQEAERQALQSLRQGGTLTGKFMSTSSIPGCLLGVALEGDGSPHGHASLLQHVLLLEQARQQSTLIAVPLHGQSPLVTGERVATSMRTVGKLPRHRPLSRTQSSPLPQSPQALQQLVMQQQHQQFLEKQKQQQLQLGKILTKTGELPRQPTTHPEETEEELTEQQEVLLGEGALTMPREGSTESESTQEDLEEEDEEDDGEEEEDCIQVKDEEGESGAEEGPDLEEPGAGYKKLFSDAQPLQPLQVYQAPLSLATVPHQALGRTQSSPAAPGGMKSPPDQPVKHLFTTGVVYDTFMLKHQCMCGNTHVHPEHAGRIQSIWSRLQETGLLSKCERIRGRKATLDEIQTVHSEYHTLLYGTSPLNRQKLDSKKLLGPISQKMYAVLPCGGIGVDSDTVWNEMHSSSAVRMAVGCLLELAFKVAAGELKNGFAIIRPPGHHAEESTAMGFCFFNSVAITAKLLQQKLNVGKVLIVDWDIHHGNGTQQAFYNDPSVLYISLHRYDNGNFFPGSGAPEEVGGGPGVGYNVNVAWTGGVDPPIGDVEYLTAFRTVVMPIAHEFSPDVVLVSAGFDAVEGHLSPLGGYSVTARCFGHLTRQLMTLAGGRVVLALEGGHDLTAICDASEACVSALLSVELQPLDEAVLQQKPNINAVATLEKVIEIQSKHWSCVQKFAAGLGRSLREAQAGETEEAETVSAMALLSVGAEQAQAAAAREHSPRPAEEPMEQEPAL
Chain of Histone deacetylase 1 (Rattus norvegicus, UniProt Q4QQW4) (Q4QQW4 whole entry, the tested form may be a part): as the sequence (Q13547 whole entry) above, with R8K, D399E, E424D, L481M counted along it

Structure (SMILES) | IC50 (Histone deacetylase 11) [nM] | IC50 (Histone deacetylase 7) [nM] | IC50 (Histone deacetylase 5) [nM] | IC50 [3] [nM] | IC50 (Histone deacetylase 3 [4]) [nM] | IC50 (Histone deacetylase 2 [5]) [nM] | IC50 [10] [nM] | IC50 (Histone deacetylase 8 [11]) [nM] | IC50 [12] [nM] | IC50 (Histone deacetylase 2 [13]) [nM] | IC50 (Histone deacetylase 1 [14]) [nM] | further results
O=C(NC1=CC(=O)c2ccccc2C1=O)c1ccccc1 |  |  |  |  |  |  |  |  |  |  |  | IC50 [1]: 5540 nM; IC50 (Histone deacetylase 1 [2]): > 180000 nM
O=C(CS)NCCCCCC(=O)Nc1cccc2cccnc12 | 610 | 2780 | 890 | 21 | 1320 | 1250 |  |  |  |  |  | 
O=C(CCCCCNC(=O)NC12CC3CC(CC(C3)C1)C2)NO | 190 | 1290 | 310 | 73 | 1560 | 2580 |  |  |  |  |  | IC50 (Histone deacetylase 8 [6]): 6800 nM; IC50 (Histone deacetylase 1 [7]): 580 nM; IC50 [8]: 270 nM
COC(=O)[C@H](Cc1ccccc1)NC(=O)CCCCCCCCC(=O)NO |  |  |  |  |  |  |  |  |  |  |  | IC50 (Histone deacetylase 6): 910 nM; IC50 (Histone deacetylase 1 [9]): 28600 nM
O=C(CCCCCCC(=O)Nc1ccc(-c2ccccc2NC(=O)[C@@H]2CCCN2)cc1)NO |  |  |  |  |  |  | 70 | 2660 | 16 | 193 | 52 | 
CC(C)(C)OC(=O)Nc1cccc(-c2csc(NC(=O)CCCCCCC(=O)NO)n2)c1 |  |  |  |  |  |  | 6 | 2580 | < 0.2 | 21 | 4 | IC50 (Histone deacetylase 3 [15]): 2 nM
